Assay results: US5536717A, “7-[4-(substituted amino)-2-butynl]benzo[B]pyrrolo[3,2,1-JK]-[1,4]benzodiazepin-6-ones” (Hoechst Marion Roussel Inc., priority 1993, dated 1996)

Key:
[1] = test system: mice; assay: 2-phenyl-1,4-benzoquinone-induced writhing test in mice; format: in vivo; settings: phenylquinone writhing
Description: The compounds of Formula I of the present invention are also useful as analgesic agents due to their ability to alleviate pain in mammals.

[2] = test system: serotonergic system; assay: L-5-hydroxytryptophan potentiation in rats; format: in vivo; settings: male Wistar rats, i.p.; for ED50: Rattus norvegicus, ip, forelimb clonus after pargyline + 5-HTP; for % Potentiation: @ 20 mg/kg, normalized relative to vehicle control
Description: According to the monoamine hypothesis of depression, compounds exert antidepressant activity because they are capable of enhancing central noradrenergic and/or serotonergic function (Shtee and […] 1971; Douglas 1975; Lingjaerde 1973). This procedure is used to evaluate enhanced activity of the serotonergic system. Groups of six male Wistar rats (150-200 g) are used in this test procedure. […] Thirty minutes before the 5-HTP administration, drugs are prepared and dosed using distilled water and, if insoluble, a suitable surfactant is added. Control groups receive vehicle. Drugs are routinely administered i.p. at a dosage volume of 10 ml/kg. L-5-hydroxytrpytophan (Calbiochem-Behring Corp.) is prepared at 1.0 mg/kg in distilled water and is administered i.p. in volumes proportional to 10 ml/kg. Fifteen minutes post-5-HTP treatment, each animal is observed for 10 seconds. Animal observations and 5-HTP administration are done in the presence of "white noise". In a dose range, drugs are administered in a randomized manner. […] Potentiation is expressed as normalized percent potentiation relative to vehicle control. […] An ED50 and 95% confidence limit are determined by Litchfield and Wilcoxon.

Which “Inhibition at 20 mg/kg, s.c.” value [1] does the source give for `CN1CCN(CC#CCN2C(=O)c3cccc4c3N(CC4)c3ccccc32)CC1.O=C(O)/C=C/C(=O)O` [1,2-Dihydro-7-[4-(4-methyl-1-piperazinyl)-2-butynyl]benzo[b]pyrrolo[3,2,1-jk][1,4]benzodiazepin-6-one fumarate] here?
The value was 44%.

How did the ED50 [2] turn out when `CC1CCN(CC#CCN2C(=O)c3cccc4c3N(CC4)c3ccccc32)CC1` [1,2-Dihydro-7-[4-(4-methyl-1-piperidinyl)-2-butynyl]benzo[b]pyrrolo[3,2,1-jk][1,4]benzodiazepin-6-one hemifumarate] was run?
Its ED50 is 25.3 mg/kg.

How did the “% Potentiation” value [2] turn out when `CN1CCN(CC#CCN2C(=O)c3cccc4c3N(CC4)c3ccc(Br)cc32)CC1.O=C(O)/C=C/C(=O)O` [9-Bromo-1,2-dihydro-7-[4-(4-methyl-1-piperazinyl)-2-butynyl]benzo[b]pyrrolo[3,2,1-jk][1,4]benzodiazepin-6-one fumarate] was run?
The value was 50%.

For `CC1CCN(CC#CCN2C(=O)c3cccc4c3N(CC4)c3ccc(Br)cc32)CC1` [9-Bromo-1,2-dihydro-7-[4-(4-methyl-1-piperidinyl)-2-butynyl]benzo[b]pyrrolo[3,2,1-jk][1,4]benzodiazepin-6-one hemifumarate], which “Inhibition at 20 mg/kg, s.c.” value [1] is on record?
Its value is 41%.

With `COc1ccccc1N1CCN(CC#CCN2C(=O)c3cccc4c3N(CC4)c3ccc(Br)cc32)CC1` [9-Bromo-1,2-dihydro-7-[4-[4-(2-methoxyphenyl)-1-piperazinyl]-2-butynyl]-2-butynyl]benzo[b]pyrrolo[3,2,1-jk][1,4]benzodiazepin-6-one] as the molecule, how does the “% Potentiation” value [2] read?
Its value is 50%.

`O=C1c2cccc3c2N(CC3)c2ccc(Br)cc2N1CC#CCN1CCC(n2c(=O)[nH]c3ccccc32)CC1` [9-Bromo-1,2-dihydro-7-[4-[4-(2-oxo-1H-benzimidazol-3-yl)-1-piperidinyl-2-butynyl]benzo[b]pyrrolo[3,2,1-jk][1,4]benzodiazepin-6-one monohydrate] was tested. Which “Inhibition at 20 mg/kg, s.c.” value [1] did it give?
Its value is 42%.

Which ED50 [2] does the source give for `CN(C)CCC=C1c2ccccc2CCc2ccccc21` [Amitriptyline, reference compound] here?
Its ED50 is 7.1 mg/kg.

How did the ED50 ([1]; Mus musculus, sc, read-out: ED50 (writhing inhibition)) turn out when `CCC(=O)O[C@](Cc1ccccc1)(c1ccccc1)[C@H](C)CN(C)C` [Propoxyphene, reference compound] was run?
The ED50 was 3.9 mg/kg.
